# Values of other authors in US20090214643A1, “IMPROVED PHARMACOKINETIC PROFILE OF BETA-ADRENERGIC INVERSE AGONISTS FOR THE TREATMENT OF PULMONARY AIRWAY DISEASES” (priority 2005, published 2009).
# Legend:
# [1] = single dose, Corgard product insert
# [2] = tested on: asthmatics
SMILES,average Tmax (time to peak serum level) [1] [h],response of asthmatics to beta blocker administration ([2]; medical literature accounts),"effect on airway function observed in asthmatics ([2]; literature 1962, 1964)"
CC(C)(C)NCC(O)COc1cccc2c1CC(O)C(O)C2 (stereo not drawn) [nadolol],3.5,serious pulmonary function reduction,–
CC(C)NCC(O)c1ccc2ccccc2c1 (stereo not drawn) [pronethalol],–,–,reduction in airway function
